Reference: patent publication US4504580A, “Antibiotics produced by fermentation of a novel strain of Streptomyces hygroscopicus” (Bristol-Myers Company, priority 1983, dated 1985)
Converted amounts (≈) assume the structure as drawn. Where two headings read alike, the source gives them in different places.

Legend:
Assay type in all cases: cell-based
[1] = tested on: Staphylococcus aureus 209P; assay: MIC by serial two-fold agar dilution, S. aureus 209P; details: Staphylococcus aureus, 209P
Protocol: (§1) The minimum inhibitory concentrations (MIC) of Bu-2659A, B, C, D and E were determined for a variety of gram-positive and gram-negative bacteria by the serial two-fold agar dilution method using the Steer's multi-inoculating apparatus. The inoculum was standardized as a 10^4 dilution of an overnight culture of the test organisms in Heart Infusion Broth (Difco). […] Reference antibiotics utilized in these tests included commercially available neomycin as well as its components, neomycins B and C [as used herein, the term "neomycin" means the commercial product containing neomycins B and C at an approximate ratio of 7:3], paromomycin [the commercial product containing >90% of paromomycin I and <10% of paromomycin II] and ribostamycin.

[2] = tested on: Staphylococcus aureus Smith; assay: MIC by serial two-fold agar dilution, S. aureus Smith; details: Staphylococcus aureus
Protocol: as §1

[3] = tested on: Staphylococcus aureus D136; assay: MIC by serial two-fold agar dilution, S. aureus D136; details: Staphylococcus aureus, D136
Protocol: as §1

[4] = tested on: Micrococcus luteus PCI 1001; assay: MIC by serial two-fold agar dilution, M. luteus PCI 1001; details: Micrococcus luteus, PCI1001
Protocol: as §1

Micrococcus flavus D12 = assay: MIC by serial two-fold agar dilution, M. flavus D12; details: Micrococcus flavus, D12
Protocol: as §1

[5] = tested on: Bacillus subtilis PCI 219; assay: MIC by serial two-fold agar dilution, B. subtilis PCI 219; details: Bacillus subtilis, PCI219
Protocol: as §1

Escherichia coli NIHJ = assay: MIC by serial two-fold agar dilution, E. coli NIHJ; details: Escherichia coli
Protocol: as §1

Escherichia coli Juhl = assay: MIC by serial two-fold agar dilution, E. coli Juhl; details: Escherichia coli
Protocol: as §1

[6] = tested on: Klebsiella pneumoniae D11; assay: MIC by serial two-fold agar dilution, K. pneumoniae D11; details: Klebsiella pneumoniae, D11
Protocol: as §1

Proteus vulgaris A9436 = assay: MIC by serial two-fold agar dilution, P. vulgaris A9436; details: Proteus vulgaris, A9436
Protocol: as §1

Proteus mirabilis A9554 = assay: MIC by serial two-fold agar dilution, P. mirabilis A9554; details: Proteus mirabilis, A9554
Protocol: as §1

Proteus mirabilis A9906 = assay: MIC by serial two-fold agar dilution, P. mirabilis A9906; details: Proteus mirabilis, A9906
Protocol: as §1

Proteus morganii A9553 = assay: MIC by serial two-fold agar dilution, P. morganii A9553; details: Morganella morganii, A9553
Protocol: as §1

Proteus rettgeri A15167 = assay: MIC by serial two-fold agar dilution, P. rettgeri A15167; details: Providencia rettgeri, A15167
Protocol: as §1

[7] = tested on: Pseudomonas aeruginosa D15; assay: MIC by serial two-fold agar dilution, P. aeruginosa D15; details: Pseudomonas aeruginosa, D15
Protocol: as §1

[8] = tested on: Pseudomonas aeruginosa A9930; assay: MIC by serial two-fold agar dilution, P. aeruginosa A9930; details: Pseudomonas aeruginosa, A9930
Protocol: as §1

[9] = tested on: Serratia marcescens A20019; assay: MIC by serial two-fold agar dilution, S. marcescens A20019; details: Serratia marcescens, A20019
Protocol: as §1

[10] = tested on: gram-positive and gram-negative bacteria; assay: In vitro antibacterial spectra (MIC), overall comparison, Table 7; details: Table 7 organisms
Protocol: as §1

Escherichia coli JR88 = assay: MIC, aminoglycoside-resistant E. coli JR88; details: Escherichia coli, JR88
Protocol: as §1

[11] = tested on: Staphylococcus aureus A20239; assay: MIC, aminoglycoside-resistant S. aureus A20239; details: Staphylococcus aureus, A20239; Table 9; inactivating enzyme APH(3')-I,II; Mueller-Hinton agar; read-out: MIC
Protocol: as §1

[12] = tested on: Bacillus brevis IFO 12334; assay: MIC, aminoglycoside-resistant B. brevis IFO 12334; details: Brevibacillus brevis, IFO12334; Table 9; inactivating enzyme ANT (4'); Mueller-Hinton agar; read-out: MIC
Protocol: as §1

Escherichia coli ML 1630 = assay: MIC, aminoglycoside-resistant E. coli ML 1630; details: Escherichia coli, ML1630; Table 9; inactivating enzyme APH(3')-I; Mueller-Hinton agar; read-out: MIC
Protocol: as §1

Escherichia coli A20107 = assay: MIC, aminoglycoside-resistant E. coli A20107; details: Escherichia coli, A20107; Table 9; inactivating enzyme APH(3')-II; Mueller-Hinton agar; read-out: MIC
Protocol: as §1

[13] = tested on: Escherichia coli JR66/W677; assay: MIC, aminoglycoside-resistant E. coli JR66/W677; details: Escherichia coli, JR66/W677
Protocol: as §1

[14] = tested on: Escherichia coli JR35/C600; assay: MIC, aminoglycoside-resistant E. coli JR35/C600; details: Escherichia coli, JR35/C600
Protocol: as §1

Escherichia coli A20732 = assay: MIC, aminoglycoside-resistant E. coli A20732; details: Escherichia coli, A20732; Table 9; inactivating enzyme ANT(2"); Mueller-Hinton agar; read-out: MIC
Protocol: as §1

[15] = tested on: Escherichia coli NR79/W677; assay: MIC, aminoglycoside-resistant E. coli NR79/W677; details: Escherichia coli, NR79/W677
Protocol: as §1

[16] = tested on: Enterobacter cloacae A20364; assay: MIC, aminoglycoside-resistant E. cloacae A20364; details: Enterobacter cloacae, A20364; Table 9; inactivating enzyme APH(3')-I; Mueller-Hinton agar; read-out: MIC
Protocol: as §1

[17] = tested on: Pseudomonas aeruginosa A20601; assay: MIC, aminoglycoside-resistant P. aeruginosa A20601; details: Pseudomonas aeruginosa, A20601; Table 9; inactivating enzymes AAC(3)-I, APH(3')-II; Mueller-Hinton agar; read-out: MIC
Protocol: as §1

[18] = tested on: Pseudomonas aeruginosa A20896; assay: MIC, aminoglycoside-resistant P. aeruginosa A20896; details: Pseudomonas aeruginosa, A20896; Table 9; inactivating enzyme AAC(3)-II; Mueller-Hinton agar; read-out: MIC
Protocol: as §1

[19] = Table 7, Mueller-Hinton agar, read-out: MIC

## NC[C@@H]1O[C@H](O[C@H]2[C@@H](O)[C@H](O[C@@H]3[C@@H](O)[C@H](O)C[C@H](N)[C@H]3O[C@H]3O[C@H](CO)[C@@H](O)[C@H](O)[C@H]3N)O[C@@H]2CO)[C@H](N)[C@@H](O)[C@@H]1O [Bu-2659C, 1-deamino-1-hydroxyparomomycin I]
[1]; [19]
  MIC: 3.1 µg/mL (≈ 5.03 µM)
[2]; [19]
  MIC: 6.3 µg/mL (≈ 10.2 µM)
[3]; [19]
  MIC: 6.3 µg/mL (≈ 10.2 µM)
[4]; [19]
  MIC: > 100 µg/mL
Micrococcus flavus D12; [19]
  MIC: > 100 µg/mL
[5]; [19]
  MIC: 0.8 µg/mL (≈ 1.3 µM)
Escherichia coli NIHJ; [19]
  MIC: 6.3 µg/mL (≈ 10.2 µM)
Escherichia coli Juhl; [19]
  MIC: 25 µg/mL (≈ 40.5 µM)
[6]; [19]
  MIC: 1.6 µg/mL (≈ 2.59 µM)
Proteus vulgaris A9436; [19]
  MIC: 1.6 µg/mL (≈ 2.59 µM)
Proteus mirabilis A9554; [19]
  MIC: 3.1 µg/mL (≈ 5.03 µM)
Proteus mirabilis A9906; [19]
  MIC: 3.1 µg/mL (≈ 5.03 µM)
Proteus morganii A9553; [19]
  MIC: 6.3 µg/mL (≈ 10.2 µM)
Proteus rettgeri A15167; [19]
  MIC: 3.1 µg/mL (≈ 5.03 µM)
[7]; [19]
  MIC: 25 µg/mL (≈ 40.5 µM)
[8]; [19]
  MIC: 12.5 µg/mL (≈ 20.3 µM)
[9]; [19]
  MIC: 6.3 µg/mL (≈ 10.2 µM)
[10]; as active as Bu-2659A
  activity relative to Bu-2659A: approximately 1/4

## NC[C@H]1O[C@H](O[C@H]2[C@H](O[C@@H]3O[C@H](CO)[C@@H](O)[C@H]3O)[C@@H](O)[C@H](O)C[C@@H]2N)[C@H](N)[C@@H](O)[C@@H]1O [Bu-2659E, 1-deamino-1-hydroxyribostamycin]
[1]; [19]
  MIC: 25 µg/mL (≈ 54.9 µM)
[2]; [19]
  MIC: 50 µg/mL (≈ 110 µM)
[3]; [19]
  MIC: 50 µg/mL (≈ 110 µM)
[4]; [19]
  MIC: > 100 µg/mL
Micrococcus flavus D12; [19]
  MIC: > 100 µg/mL
[5]; [19]
  MIC: 3.1 µg/mL (≈ 6.81 µM)
Escherichia coli NIHJ; [19]
  MIC: 50 µg/mL (≈ 110 µM)
Escherichia coli Juhl; [19]
  MIC: > 100 µg/mL
[6]; [19]
  MIC: 12.5 µg/mL (≈ 27.4 µM)
Proteus vulgaris A9436; [19]
  MIC: 12.5 µg/mL (≈ 27.4 µM)
Proteus mirabilis A9554; [19]
  MIC: 12.5 µg/mL (≈ 27.4 µM)
Proteus mirabilis A9906; [19]
  MIC: 25 µg/mL (≈ 54.9 µM)
Proteus morganii A9553; [19]
  MIC: 25 µg/mL (≈ 54.9 µM)
Proteus rettgeri A15167; [19]
  MIC: 12.5 µg/mL (≈ 27.4 µM)
[7]; [19]
  MIC: > 100 µg/mL
[8]; [19]
  MIC: > 100 µg/mL
[9]; [19]
  MIC: > 100 µg/mL
[10]
  in vitro antibacterial activity, in words: less active than components B and C

## NC[C@H]1O[C@H](O[C@H]2[C@H](O)[C@@H](O)[C@H](N)C[C@@H]2N)[C@H](N)[C@@H](O)[C@@H]1O [Neamine, neamine]
[1]
  MIC: 6.3 µg/mL (≈ 19.5 µM)
[2]
  MIC: 3.1 µg/mL (≈ 9.62 µM)
[5]
  MIC: 3.1 µg/mL (≈ 9.62 µM)
Escherichia coli NIHJ
  MIC: 12.5 µg/mL (≈ 38.8 µM)
[6]
  MIC: 12.5 µg/mL (≈ 38.8 µM)
Proteus vulgaris A9436
  MIC: 6.3 µg/mL (≈ 19.5 µM)
Proteus mirabilis A9554
  MIC: 25 µg/mL (≈ 77.6 µM)
[8]
  MIC: 400 µg/mL (≈ 1240 µM)
Escherichia coli JR88
  MIC: 12.5 µg/mL (≈ 38.8 µM)

## NC[C@H]1O[C@H](O[C@H]2[C@H](O[C@@H]3O[C@H](CO)[C@@H](O)[C@H]3O)[C@@H](O)[C@H](N)C[C@@H]2N)[C@H](N)[C@@H](O)[C@@H]1O [Ribostamycin, ribostamycin]
[1]
  MIC: 1.6 µg/mL (≈ 3.52 µM)
[2]
  MIC: 3.1 µg/mL (≈ 6.82 µM)
[3]
  MIC: 3.1 µg/mL (≈ 6.82 µM)
[4]
  MIC: 6.3 µg/mL (≈ 13.9 µM)
Micrococcus flavus D12
  MIC: 12.5 µg/mL (≈ 27.5 µM)
[5]
  MIC: 0.4 µg/mL (≈ 0.88 µM)
Escherichia coli NIHJ
  MIC: 3.1 µg/mL (≈ 6.82 µM)
Escherichia coli Juhl
  MIC: 6.3 µg/mL (≈ 13.9 µM)
[6]
  MIC: 0.4 µg/mL (≈ 0.88 µM)
Proteus vulgaris A9436
  MIC: 0.8 µg/mL (≈ 1.76 µM)
Proteus mirabilis A9554
  MIC: 1.6 µg/mL (≈ 3.52 µM)
Proteus mirabilis A9906
  MIC: 1.6 µg/mL (≈ 3.52 µM)
Proteus morganii A9553
  MIC: 1.6 µg/mL (≈ 3.52 µM)
Proteus rettgeri A15167
  MIC: 0.8 µg/mL (≈ 1.76 µM)
[7]
  MIC: > 100 µg/mL
[8]
  MIC: 100 µg/mL (≈ 220 µM)
[9]
  MIC: 25 µg/mL (≈ 55 µM)
[11]
  MIC: > 100 µg/mL
[12]
  MIC: > 100 µg/mL
Escherichia coli ML 1630
  MIC: > 100 µg/mL
Escherichia coli A20107
  MIC: > 100 µg/mL
[13]
  MIC: > 100 µg/mL
Escherichia coli JR88
  MIC: 1.6 µg/mL (≈ 3.52 µM)
[14]
  MIC: > 100 µg/mL
Escherichia coli A20732
  MIC: 1.6 µg/mL (≈ 3.52 µM)
[15]
  MIC: > 100 µg/mL
[16]
  MIC: > 100 µg/mL
[17]
  MIC: > 100 µg/mL
[18]
  MIC: > 100 µg/mL
